Data as given in ChEMBL document CHEMBL5532666 (J Med Chem, 2024).
The source made the active and inactive calls. The rule behind the calls is not given here.

What was measured:
[1] = target: Dual specificity protein kinase CLK1 (Homo sapiens) (UniProt P49759); assay: Binding affinity to CLK1 (unknown origin) assessed as thermal stabilization by measuring change in melting temperature by DSF analysis
[2] = target: Glycogen synthase kinase-3 beta (Homo sapiens) (UniProt P49841); assay: Binding affinity to GSK3B (unknown origin) assessed as thermal stabilization by measuring change in melting temperature by DSF analysis
[3] = target: Maternal embryonic leucine zipper kinase (Homo sapiens) (UniProt Q14680); assay: Binding affinity to MELK (unknown origin) assessed as thermal stabilization by measuring change in melting temperature by DSF analysis
[4] = target: T1, Serine/threonine-protein kinase 4 (Homo sapiens, UniProt Q13043); assay: Binding affinity to N-terminal full length human MST1 expressed in intact HEK293T cells incubated for 2 hrs by NanoBRET assay; type: cell-based
T1 sequence (Q13043 whole entry): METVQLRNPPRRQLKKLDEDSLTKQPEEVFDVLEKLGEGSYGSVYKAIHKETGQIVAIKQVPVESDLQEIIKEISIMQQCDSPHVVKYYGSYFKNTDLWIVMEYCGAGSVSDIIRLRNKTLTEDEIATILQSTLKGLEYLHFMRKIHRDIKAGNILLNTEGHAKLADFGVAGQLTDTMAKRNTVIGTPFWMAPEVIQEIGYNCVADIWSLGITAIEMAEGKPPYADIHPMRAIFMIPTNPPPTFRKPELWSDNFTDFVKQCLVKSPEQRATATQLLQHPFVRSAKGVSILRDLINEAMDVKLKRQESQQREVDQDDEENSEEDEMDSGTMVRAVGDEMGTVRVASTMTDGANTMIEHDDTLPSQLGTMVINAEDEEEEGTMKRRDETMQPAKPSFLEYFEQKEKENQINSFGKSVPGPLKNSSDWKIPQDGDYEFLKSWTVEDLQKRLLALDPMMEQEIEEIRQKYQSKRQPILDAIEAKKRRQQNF

[5] = target: T2, Serine/threonine-protein kinase 24 (Homo sapiens, UniProt Q9Y6E0); assay: Binding affinity to C-terminal full length human MST3 expressed in intact HEK293T cells incubated for 2 hrs by NanoBRET assay; type: cell-based
Target sequence in this assay (Q9Y6E0 whole entry): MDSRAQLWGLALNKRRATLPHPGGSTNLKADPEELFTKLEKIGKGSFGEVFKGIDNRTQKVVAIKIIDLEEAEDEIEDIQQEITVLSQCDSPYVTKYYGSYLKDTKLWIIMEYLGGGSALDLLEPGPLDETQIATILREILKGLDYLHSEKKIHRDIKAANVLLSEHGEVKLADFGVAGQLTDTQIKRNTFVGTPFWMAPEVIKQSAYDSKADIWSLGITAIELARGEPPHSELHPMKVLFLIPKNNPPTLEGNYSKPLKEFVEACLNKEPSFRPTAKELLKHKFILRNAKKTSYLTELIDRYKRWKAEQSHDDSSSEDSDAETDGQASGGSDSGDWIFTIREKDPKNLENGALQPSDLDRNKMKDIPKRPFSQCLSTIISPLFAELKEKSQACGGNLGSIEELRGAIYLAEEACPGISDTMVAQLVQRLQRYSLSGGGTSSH

[6] = target: T2, Serine/threonine-protein kinase 24; assay: Binding affinity to C-terminal full length human MST3 expressed in permeabilized HEK293T cells incubated for 2 hrs by NanoBRET assay; type: cell-based
Target sequence in this assay (Q9Y6E0 whole entry): as above

[7] = target: Serine/threonine-protein kinase 26 (Homo sapiens, UniProt Q9P289); assay: Binding affinity to N-terminal 6His-tagged TEV fused MST4 (unknown origin) expressed in Escherichia coli BL21 (DE3) cells assessed as offset in binding entropy change by ITC analysis
[8] = target: T3, LIM domain kinase 2 (Homo sapiens, UniProt P53671); assay: Inhibition of wildtype LIMK2 (unknown origin) assessed as residual activity at 1 uM relative to control
Target sequence in this assay (P53671 whole entry, looked up, the tested form may be a part): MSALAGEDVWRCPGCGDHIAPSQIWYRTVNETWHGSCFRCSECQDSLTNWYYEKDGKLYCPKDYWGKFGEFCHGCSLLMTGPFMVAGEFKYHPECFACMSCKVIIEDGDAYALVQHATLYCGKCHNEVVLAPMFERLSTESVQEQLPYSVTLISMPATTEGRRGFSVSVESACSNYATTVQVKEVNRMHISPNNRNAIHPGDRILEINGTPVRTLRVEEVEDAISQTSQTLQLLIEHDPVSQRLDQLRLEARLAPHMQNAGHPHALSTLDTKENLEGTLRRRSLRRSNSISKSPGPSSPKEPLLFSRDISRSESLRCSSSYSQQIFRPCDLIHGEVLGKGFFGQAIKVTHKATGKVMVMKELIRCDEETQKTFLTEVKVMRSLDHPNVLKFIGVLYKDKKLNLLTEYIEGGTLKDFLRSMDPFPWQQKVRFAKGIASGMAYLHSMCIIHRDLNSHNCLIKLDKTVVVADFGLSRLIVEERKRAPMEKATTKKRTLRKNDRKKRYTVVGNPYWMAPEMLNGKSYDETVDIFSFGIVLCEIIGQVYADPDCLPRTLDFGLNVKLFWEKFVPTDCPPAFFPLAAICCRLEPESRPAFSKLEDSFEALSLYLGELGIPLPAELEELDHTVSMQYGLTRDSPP

[9] = target: T3, LIM domain kinase 2; assay: Binding affinity to LIMK2 (unknown origin) expressed in intact HEK293T cells incubated for 2 hrs by NanoBRET assay; type: cell-based
Target sequence in this assay (P53671 whole entry, the tested form may be a part): as the sequence (P53671 whole entry, looked up, the tested form may be a part) above

[10] = test system: HCT-116; assay: Cell cycle arrest in human HCT-116 cells expressing […] assessed as G2/M phase cells at 1 uM incubated for 72 hrs by Hoechst33342 staining based analysis (reference value: 38%); type: functional
[11] = test system: HCT-116; assay: Cell cycle arrest in human HCT-116 cells expressing […] assessed as G1 phase cells at 1 uM incubated for 72 hrs by Hoechst33342 staining based analysis (reference value: 52%); type: functional
[12] = Toxicity in human HCT-116 cells expressing FUCCI assessed as reduction in normalized cell count at 10 uM measured upto 80 hrs by Hoechst33342 staining based analysis; settings: hct-116, 80 h
[13] = target: T4, Serine/threonine-protein kinase 4 (Homo sapiens) (UniProt Q13043); settings: dose 10.0 µM
T4 sequence (whole entry): T1 sequence (Q13043 whole entry)
Description: Binding affinity to recombinant MST1 (unknown origin) kinase domain assessed as thermal stabilization by measuring change in melting temperature at 10 uM by DSF analysis

[14] = target: T2, Serine/threonine-protein kinase 24; settings: dose 10.0 µM
Target sequence in this assay (Q9Y6E0 whole entry, looked up): as the sequence (Q9Y6E0 whole entry) above
Description: Binding affinity to recombinant MST3 (unknown origin) kinase domain assessed as thermal stabilization by measuring change in melting temperature at 10 uM by DSF analysis

Chain of Dual specificity protein kinase CLK1 (Homo sapiens) (P49759 whole entry, looked up): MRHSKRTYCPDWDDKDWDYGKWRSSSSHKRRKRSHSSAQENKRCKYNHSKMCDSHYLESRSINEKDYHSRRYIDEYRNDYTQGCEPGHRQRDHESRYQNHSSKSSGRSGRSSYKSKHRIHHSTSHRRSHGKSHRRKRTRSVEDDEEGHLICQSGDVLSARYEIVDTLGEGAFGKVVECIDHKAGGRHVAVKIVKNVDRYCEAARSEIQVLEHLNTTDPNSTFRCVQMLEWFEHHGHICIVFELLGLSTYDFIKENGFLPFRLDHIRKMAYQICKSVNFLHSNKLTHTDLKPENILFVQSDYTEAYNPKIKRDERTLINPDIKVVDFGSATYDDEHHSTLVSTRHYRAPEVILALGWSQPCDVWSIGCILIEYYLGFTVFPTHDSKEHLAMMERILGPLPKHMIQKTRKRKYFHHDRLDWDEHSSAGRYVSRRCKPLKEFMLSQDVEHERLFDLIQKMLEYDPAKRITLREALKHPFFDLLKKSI
Chain of Glycogen synthase kinase-3 beta (Homo sapiens) (P49841 whole entry, looked up): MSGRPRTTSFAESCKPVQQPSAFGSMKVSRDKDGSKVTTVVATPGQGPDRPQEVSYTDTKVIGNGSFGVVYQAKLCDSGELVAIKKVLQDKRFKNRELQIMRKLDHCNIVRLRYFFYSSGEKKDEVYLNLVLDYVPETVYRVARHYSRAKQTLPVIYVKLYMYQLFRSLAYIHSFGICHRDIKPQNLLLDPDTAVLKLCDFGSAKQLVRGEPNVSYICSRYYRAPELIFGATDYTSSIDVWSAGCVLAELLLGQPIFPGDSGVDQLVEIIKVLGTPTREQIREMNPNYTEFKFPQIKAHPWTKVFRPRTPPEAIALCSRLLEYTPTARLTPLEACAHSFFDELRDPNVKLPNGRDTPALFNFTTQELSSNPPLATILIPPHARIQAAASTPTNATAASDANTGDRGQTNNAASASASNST
Chain of Serine/threonine-protein kinase 26 (Q9P289 2-416 limits assumed): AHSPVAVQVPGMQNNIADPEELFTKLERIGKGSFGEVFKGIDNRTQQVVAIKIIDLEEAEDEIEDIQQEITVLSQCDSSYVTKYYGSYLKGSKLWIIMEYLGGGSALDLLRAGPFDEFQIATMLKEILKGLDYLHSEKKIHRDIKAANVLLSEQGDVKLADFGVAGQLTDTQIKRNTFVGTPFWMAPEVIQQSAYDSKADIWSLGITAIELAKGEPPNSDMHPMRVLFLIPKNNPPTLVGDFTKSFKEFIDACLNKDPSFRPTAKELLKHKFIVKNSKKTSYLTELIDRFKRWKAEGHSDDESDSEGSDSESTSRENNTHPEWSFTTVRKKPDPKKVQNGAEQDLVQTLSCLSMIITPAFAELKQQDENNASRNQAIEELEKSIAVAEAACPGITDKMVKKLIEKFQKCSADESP
Chain of Maternal embryonic leucine zipper kinase (Homo sapiens) (Q14680 whole entry, looked up): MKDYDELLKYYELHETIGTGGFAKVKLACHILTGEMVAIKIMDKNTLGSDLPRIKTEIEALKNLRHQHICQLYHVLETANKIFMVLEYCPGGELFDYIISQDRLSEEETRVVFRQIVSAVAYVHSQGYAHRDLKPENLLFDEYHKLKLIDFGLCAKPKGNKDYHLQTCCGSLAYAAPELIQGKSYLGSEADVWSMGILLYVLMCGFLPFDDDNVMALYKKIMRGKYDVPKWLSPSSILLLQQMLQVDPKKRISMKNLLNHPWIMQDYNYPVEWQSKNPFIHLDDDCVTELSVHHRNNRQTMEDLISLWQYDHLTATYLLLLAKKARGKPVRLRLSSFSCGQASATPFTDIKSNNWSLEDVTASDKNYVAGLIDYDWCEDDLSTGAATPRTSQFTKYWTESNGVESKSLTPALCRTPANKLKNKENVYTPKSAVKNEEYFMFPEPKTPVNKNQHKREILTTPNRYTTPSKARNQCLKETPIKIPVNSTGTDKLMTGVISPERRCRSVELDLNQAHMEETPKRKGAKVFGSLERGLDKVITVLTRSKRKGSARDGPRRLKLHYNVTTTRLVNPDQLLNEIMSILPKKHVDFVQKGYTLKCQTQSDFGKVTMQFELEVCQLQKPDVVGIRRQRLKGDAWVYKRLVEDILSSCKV

O=C1NCCCCCNc2nc(c3ccccc3n2)Nc2cc1[nH]n2
ΔTm [1]: 5.1 °C | ΔTm [2]: 5.1 °C | ΔTm [3]: 5.1 °C | EC50 [4]: > 50000 nM | EC50 [5]: 110 nM | EC50 [6]: 80 nM | Activity [7]: Active | Activity [8]: 38.2% | EC50 [9]: 1780 nM | Activity [10]: 33% | Activity [11]: 57% | Activity [12]: Toxic | ΔTm [13]: 1.4 °C | ΔTm [14]: 7.5 °C
